Reference: ChEMBL document CHEMBL3272344, “Synthesis of 5-substituted aminomethyluracils via the Mannich reaction” (J Med Chem, 1976)
Active and inactive are the calls of the source. No cut-off for these calls is given here.

What was measured:
[1] = test system: Mus musculus; experiment: Toxicity in mouse L1210 cells allografted mouse up to 400 mg/kg; assay type: organism-based; design: dose 400 mg/kg; details: in vivo
[2] = test system: Plasmodium gallinaceum; experiment: Antimalarial activity against Plasmodium gallinaceum B infected in chick at 120 mg/kg; assay type: functional, organism-based; design: dose 120 mg/kg
[3] = test system: L1210; experiment: Antitumor activity against mouse L1210 cells allografted in mouse up to 400 mg/kg; assay type: functional, organism-based; design: dose 400 mg/kg
[4] = test system: Gallus gallus; experiment: Toxicity in Plasmodium gallinaceum B infected chick at 120 mg/kg; assay type: organism-based; design: dose 120 mg/kg; details: chicken, in vivo
[5] = test system: Plasmodium berghei; experiment: Antimalarial activity against Plasmodium berghei infected in mouse at 640 mg/kg; assay type: functional, organism-based; design: dose 640 mg/kg
[6] = test system: Mus musculus; experiment: Toxicity in Plasmodium berghei infected mouse at 640 mg/kg; assay type: organism-based; design: dose 640 mg/kg; details: in vivo
[7] = test system: Mus musculus; experiment: Toxicity in Plasmodium berghei infected mouse at 320 mg/kg; assay type: organism-based; design: dose 320 mg/kg; details: in vivo
[8] = test system: Plasmodium berghei; experiment: Antimalarial activity against Plasmodium berghei infected in mouse at 320 mg/kg; assay type: functional, organism-based; design: dose 320 mg/kg
[9] = test system: Plasmodium gallinaceum; experiment: Antimalarial activity against Plasmodium gallinaceum B infected in chick at 160 mg/kg; assay type: functional, organism-based; design: dose 160 mg/kg
[10] = test system: Gallus gallus; experiment: Toxicity in Plasmodium gallinaceum B infected chick at 160 mg/kg; assay type: organism-based; design: dose 160 mg/kg; details: chicken, in vivo
[11] = test system: Plasmodium gallinaceum; experiment: Antimalarial activity against Plasmodium gallinaceum B infected in chick at 100 mg/kg; assay type: functional, organism-based; design: dose 100 mg/kg
[12] = test system: Gallus gallus; experiment: Toxicity in Plasmodium gallinaceum B infected chick at 100 mg/kg; assay type: organism-based; design: dose 100 mg/kg; details: chicken, in vivo

Row | SMILES | Activity [1] | Activity [3] | Activity [5] | Activity [6] | Activity [7] | Activity [8] | also measured
1 | O=c1[nH]cc(CNc2ccccc2)c(=O)[nH]1 | Non-toxic | inactive | inactive | Non-toxic | – | – | Activity [2]: inactive; Activity [4]: Non-toxic
2 | O=c1[nH]cc(CNc2ccc(Cl)cc2)c(=O)[nH]1 | – | – | – | – | Non-toxic | inactive | –
3 | CN(C)Cc1c[nH]c(=O)[nH]c1=O | Non-toxic | inactive | – | – | – | – | –
4 | COc1ccc(NCc2c[nH]c(=O)[nH]c2=O)cc1 | – | – | – | – | Non-toxic | inactive | Activity [9]: inactive; Activity [10]: Non-toxic
5 | Cc1cccc(NCc2c[nH]c(=O)[nH]c2=O)c1 | – | – | inactive | Non-toxic | – | – | –
6 | O=c1[nH]cc(CNC2CCCCC2)c(=O)[nH]1 | Non-toxic | inactive | – | – | Non-toxic | inactive | Activity [9]: inactive; Activity [10]: Non-toxic
7 | CCCCNCc1c[nH]c(=O)[nH]c1=O | – | – | inactive | Non-toxic | – | – | Activity [11]: inactive; Activity [12]: Non-toxic
